Assay [1] deals with S. aureus Xen 30 (MRSA Xen 30). Kind of assay: Broth microdilution assay (OD 600 nm). The class given is cell-based, Staphylococcus aureus. Here is the method: (§1) Serrawettin W2-FL10 (95% pure) was tested for antibacterial activity using a broth microdilution susceptibility assay ([6]), with melittin included as an antibiotic control. The serrawettin W2-FL10 was prepared in 70% MeCN to 1.00 mg/mL, from which aliquots were prepared using 70% MeCN to a concentration of 50 µg/mL or 500 µg/mL, while aliquots of melittin were prepared using analytical quality H2O to 128 µg/mL. Fifty microliters of the respective W2-FL10 aliquots or melittin were dispensed into a clear 96-well plate and a microdilution (in 70% MeCN for W2-FL10 or analytical quality H2O for melittin) was performed within the plate. The plate was air-dried to remove the solvent and placed in a desiccator with chloroform for 20 min for sterilization.
(§2) All the cultures (inoculated into 5 mL MHB, or 5 mL TSB for Listeria and Enterococcus strains) were incubated at 37°C to reach an optical density (OD) of 0.4 at 600 nm (∼10^7 CFU/mL). A 1:20 dilution of the test strain (final concentration of ∼10^5 CFU/mL) was prepared and 100 µL was dispensed into each well (final concentration of W2-FL10 at 1.5–125 µg/mL and melittin at 2–32 µg/mL). Sterile broth and the OD-adjusted inoculum were included as positive controls, while sterile broth (no inoculum) was included as a negative control. The 96-well plate was incubated for 18 h at 37°C. All the tests were performed in triplicate, with independent duplicates. Following incubation, the absorbance was measured using a microtiter plate reader at 600 nm. The 50% growth inhibition concentration (IC50) was determined using GraphPad Prism version 5 for Windows [GraphPad Software, San Diego, USA (www.graphpad.com)]. A sigmodal curve with variable slope was fitted to each set of dose-repose data according to Rautenbach et al. ([17]) using equation (1):
(§3) (1) Y=bottom+(top−bottom)/1+10^logIC50×Activity slope
(§4) The “top” and “bottom” are the maximum and minimum inhibition responses, respectively, for a particular set of dose-response data, while the activity slope is related to the Hill slope of a sigmoidal binding curve ([16]). […] The MIC value was determined for each set of dose-response data as the lowest concentration, resulting in ≥90% inhibition of the target cell growth. In addition to the MIC and IC50 inhibition parameters, an inhibition concentration factor (ICF), was calculated as outlined in Rautenbach et al. ([17]). The ICF is indicative of the concentration increase from the highest concentration where no activity is observed to the MIC of a compound.

The next assay deals with S. aureus RN4220. Kind of assay: Broth microdilution assay (OD 600 nm). The class given is cell-based, Staphylococcus aureus. How it is done: as §1, §2, §3, §4
The subject of a further assay is S. aureus ATCC 25923. Kind of assay: Broth microdilution assay (OD 600 nm). Type of assay: cell-based, Staphylococcus aureus. Here is the method:
as §1, §2, §3, §4

For a further assay, the system named is three S. aureus strains. Kind of assay: Time-kill kinetics, summary. To be noted: at MIC. The class given is cell-based, Staphylococcus aureus. How it is done: Time-kill assays were performed for W2-FL10 against S. aureus ATCC 25923, S. aureus RN4220, and MRSA Xen 30 to determine the bacteriostatic (suppresses growth) or bactericidal (>3 log reduction in CFUs) activity of the compound, allowing for the determination of cell survival percentage per minute ([19]).
To determine the kill rate of the lipopeptide, exponentially growing S. aureus strains were prepared as described in the “Antibacterial activity: broth microdilution assay” section (OD600 = 0.4, ~10^7 CFU/mL; 1:20 dilution was conducted to obtain ~10^5 CFU/mL) ([24], [55]). Thereafter, 200 µL of the bacterial suspension (in MHB) was dispensed into a clear 96-well plate containing 12.5 or 25 µg/mL of W2-FL10, and plates were incubated at 37°C. Aliquots of 20 µL were collected at different time intervals (0, 1, 2, 4, 8, and 24 h), diluted in 180 µL PBS in a clear 96-well plate (from 10^−2 to 10^−8), and 100 µL of the respective dilution was spread onto LB agar plates. Undiluted samples of 20 µL were spot-plated onto LB agar to confirm the absence of cells at 8 and/or 24 h. The LB agar plates were then incubated overnight at 37°C and the CFU/mL was determined. A positive control of bacterial cells without peptide and a negative control with only LB were included. All the tests were performed in triplicate, with independent duplicates. […]

The subject of another assay is E. faecalis ATCC 7080. Kind of assay: Broth microdilution assay (OD 600 nm). The class given is cell-based, Enterococcus faecalis. Here is the method:
as §1, §2, §3, §4

Another assay has as its system E. faecalis S1. Kind of assay: Broth microdilution assay (OD 600 nm). Type of assay: cell-based, Enterococcus faecalis. Here is the method:
as §1, §2, §3, §4

The next assay concerns E. faecium S1. Kind of assay: Broth microdilution assay (OD 600 nm). The class given is cell-based, Enterococcus faecium. How it is done: as §1, §2, §3, §4
[2] abbreviates: 50% growth inhibition, sigmoidal curve fit, n = 3.
Setting [3] is: inhibition concentration factor.
The mark [4] stands for this setting: ≥90% growth inhibition, OD 600 nm, MHB, 18 h 37°C.
Where [5] appears, read: ≥90% growth inhibition, OD 600 nm, TSB, 18 h 37°C.

Several values for one entry are separate records, joined by “and”; a condition that tells them apart may be missing. Identical values can stand only once.

As to `CCCCCCCC1CC(=O)N[C@H](CC(C)C)C(=O)N[C@@H](CO)C(=O)N[C@@H]([C@@H](C)O)C(=O)N[C@H](Cc2ccccc2)C(=O)N[C@@H](CC(C)C)C(=O)O1` (stereo partly drawn) [W2-FL10, serrawettin W2-FL10], the “IC50 ± SD” value in assay [1] (setting [2]) is 5.7 ± 0.6 (3) µg/mL; in the assay on S. aureus RN4220 (setting [2]) it was 5.7 ± 0.6 (3) µg/mL; in the assay with S. aureus ATCC 25923 (setting [2]), 5.5 ± 0.3 (3) µg/mL; with E. faecalis ATCC 7080 (setting [2]) it was 3.2 ± 0.3 (3) µg/mL; with E. faecalis S1 (setting [2]), 5.2 ± 0.5 (3) µg/mL; in the assay with E. faecium S1 (setting [2]), 5.4 ± 0.1 (3) µg/mL. The Selectivity index was 5.1 in assay [1] (LC50 (CHO)/IC50); 5.1 in the assay with S. aureus RN4220 (LC50 (CHO)/IC50); 5.3 in the assay on S. aureus ATCC 25923 (LC50 (CHO)/IC50); 9.1 in the assay on E. faecalis ATCC 7080 (LC50 (CHO)/IC50); 5.6 with E. faecalis S1 (LC50 (CHO)/IC50); 5.4 in the assay with E. faecium S1 (LC50 (CHO)/IC50). The “ICF (MIC/IC50)^2” value in assay [1] (setting [3]) is on record as 4.8; with S. aureus RN4220 (setting [3]) it was 4.9; in the assay on S. aureus ATCC 25923 (setting [3]), 5.2; in the assay on E. faecalis S1 (setting [3]), 5.4; with E. faecium S1 (setting [3]), 5.9. In addition, the MIC in assay [1] (setting [4]) is 12.5 μg/mL and 12.5 (17.1) μg/mL; in the assay on S. aureus RN4220 (setting [4]), 12.5 μg/mL and 12.5 (17.1) μg/mL; against S. aureus ATCC 25923 (setting [4]) it was 12.5 μg/mL and 12.5 (17.1) μg/mL; against E. faecalis ATCC 7080 (setting [5]) it was 6.3 μg/mL and 6.3 (8.5) μg/mL; with E. faecalis S1 (setting [5]), 12.5 μg/mL and 12.5 (17.1) μg/mL; against E. faecium S1 (setting [5]), 12.5 μg/mL and 12.5 (17.1) μg/mL. Further, the “time within which >90% bactericidal action occurred” value in the assay with three S. aureus strains lay in the range of 4 to 8 h.

The values are drawn from article PMC11218446, “Antibacterial efficacy and membrane mechanism of action of the Serratia-derived non-ionic lipopeptide, serrawettin W2-FL10” (Microbiology Spectrum, 2024).
